Assay results reported in PubChem BioAssay (NCI).
Several values for one entry are separate records, joined by “and”; a condition that tells them apart may be missing. Identical values can stand only once.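 96-well plates; 48 h exposure; 5 concentrations. Endpoints by linear interpolation between flanking doses. Not reached: highest tested concentration assigned. Here, GI50 denotes the concentration required for 50% inhibition of growth. TGI is the concentration that stops growth completely.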

What was measured:
Assay in all cases: inhibition of tumour cell growth, NCI panel, 48 h; in the data active = GI50 below about 0.43 µM; inactive = the rest
[1] = test system: K-562 leukemia
[2] = test system: KM12 colon
[3] = test system: MDA-MB-435
[4] = test system: SF-295 CNS
[5] = test system: OVCAR-8 ovarian
[6] = test system: LOX IMVI melanoma
[7] = test system: OVCAR-3 ovarian
[8] = test system: CAKI-1 renal
[9] = test system: T-47D breast
[10] = test system: SK-MEL-28 melanoma
[11] = test system: OVCAR-4 ovarian
[12] = test system: EKVX NSCLC
[13] = test system: SW-620 colon
[14] = test system: BT-549 breast
[15] = test system: SF-539 CNS
[16] = test system: HCT-15 colon
[17] = test system: ACHN renal
[18] = test system: UACC-257 melanoma
[19] = test system: M14 melanoma
[20] = test system: 786-0 renal
[21] = test system: UACC-62 melanoma
[22] = test system: MDA-MB-231 breast
[23] = test system: SF-268 CNS
[24] = test system: HL-60(TB) leukemia
[25] = test system: SK-MEL-2 melanoma
[26] = test system: MCF7 breast
[27] = test system: SNB-19 CNS
[28] = test system: MALME-3M melanoma
[29] = test system: NCI-H460 lung
[30] = test system: COLO 205 colon
[31] = test system: NCI-H522 lung
[32] = test system: UO-31 renal
[33] = test system: U251 CNS
[34] = test system: HOP-92 NSCLC
[35] = test system: HCT-116 colon
[36] = test system: IGROV1 ovarian
[37] = test system: A498 renal
[38] = test system: SK-OV-3 ovarian
[39] = test system: HOP-62 NSCLC
[40] = test system: DU-145 prostate
[41] = test system: HS 578T breast
[42] = test system: A549 NSCLC
[43] = test system: SNB-75 CNS
[44] = test system: CCRF-CEM leukemia
[45] = test system: RXF 393 renal
[46] = test system: SK-MEL-5 melanoma
[47] = test system: PC-3 prostate
[48] = test system: MOLT-4 leukemia
[49] = test system: SN12C renal
[50] = test system: TK-10 renal
[51] = test system: HT29 colon
[52] = test system: NCI-H226 lung

CCN(CC)CCCC(CO)Nc1ccnc2cc(Cl)ccc12 (centres undefined)
35.4 µM and 35.3 µM: TGI [15]
30.9 µM and 31.2 µM: TGI [19]
73.7 µM and 80.1 µM: TGI [35]
> 100 µM and 85.5 µM: TGI [8]
> 100 µM and 39.8 µM: TGI [44]
44.8 µM and 37.6 µM: TGI [46]
> 100 µM and 88.5 µM: TGI [34]
57.5 µM and > 100 µM: TGI [10]
46.6 µM and 45.3 µM: TGI [4]
> 100 µM and 92.8 µM: TGI [52]
59.1 µM and 49.9 µM: TGI [28]
33 µM and 35.2 µM: TGI [18]
> 100 µM: TGI [1] | TGI [2] | TGI [5] | TGI [9] | TGI [11] | TGI [12] | TGI [13] | TGI [14] | TGI [16] | TGI [17] | TGI [20] | TGI [22] | TGI [23] | TGI [24] | TGI [25] | TGI [26] | TGI [27] | TGI [29] | TGI [30] | TGI [31] | TGI [32] | TGI [33] | TGI [36] | TGI [37] | TGI [38] | TGI [39] | TGI [40] | TGI [41] | TGI [42] | TGI [43] | TGI [45] | TGI [47] | TGI [48] | TGI [49] | TGI [50] | TGI [51]
42.7 µM and 43.2 µM: TGI [3]
77.1 µM and > 100 µM: TGI [7]
49.6 µM and > 100 µM: TGI [21]
inactive: GI50 [1] 30.4 µM and 36.3 µM | GI50 [2] 49.1 µM and 66.8 µM | GI50 [3] 19.5 µM and 20.5 µM | GI50 [4] 18.9 µM and 18 µM | GI50 [5] 38.5 µM and 56.1 µM | GI50 [6] 30.1 µM and 27.6 µM | GI50 [7] 28.3 µM and 32.6 µM | GI50 [8] 32.7 µM and 30.7 µM | GI50 [9] > 100 µM | GI50 [10] 25 µM and > 100 µM | GI50 [11] > 100 µM and 58.2 µM | GI50 [12] 54.5 µM and 74.2 µM | GI50 [13] 50.6 µM and > 100 µM | GI50 [14] 33.8 µM and 30.8 µM | GI50 [15] 15.9 µM and 17.3 µM | GI50 [16] > 100 µM | GI50 [17] > 100 µM and 54.1 µM | GI50 [18] 18.1 µM and 19.2 µM | GI50 [19] 16.6 µM and 17 µM | GI50 [20] 54.9 µM and 42.3 µM | GI50 [21] 22.2 µM and 37.7 µM | GI50 [22] 70.3 µM and 57.1 µM | GI50 [23] 64.3 µM and 75.7 µM | GI50 [24] 24.4 µM and 25 µM | GI50 [25] > 100 µM and 90.2 µM | GI50 [26] 47.9 µM and 56.1 µM | GI50 [27] > 100 µM | GI50 [28] 29.4 µM and 26.5 µM | GI50 [29] 66.2 µM and 82.7 µM | GI50 [30] 39.9 µM and 34.5 µM | GI50 [31] 56.9 µM and > 100 µM | GI50 [32] > 100 µM | GI50 [33] 67.6 µM and 70.8 µM | GI50 [34] 22.6 µM and 20.5 µM | GI50 [35] 21.9 µM and 26.3 µM | GI50 [36] > 100 µM | GI50 [37] > 100 µM and 32.7 µM | GI50 [38] > 100 µM and 91.5 µM | GI50 [39] 82.4 µM and 68.2 µM | GI50 [40] > 100 µM | GI50 [41] > 100 µM and 72.5 µM | GI50 [42] 50.9 µM and 73.7 µM | GI50 [43] > 100 µM | GI50 [44] 45.4 µM and 15 µM | GI50 [45] 35.8 µM and 41.1 µM | GI50 [46] 20 µM and 18 µM | GI50 [47] 66.2 µM and 34.4 µM | GI50 [48] 31 µM and 34.3 µM | GI50 [49] > 100 µM and 48.5 µM | GI50 [50] 46 µM and 32.4 µM | GI50 [51] 32.2 µM and 64.3 µM | GI50 [52] > 100 µM and 36.5 µM
59.6 µM and 51.5 µM: TGI [6]
